Laboratory results: patent US20250000881A1, “TREATMENT OF TREATMENT RESISTANT […] PSILOCYBIN” (COMPASS […], priority 2021, published 2025)

Test system: adult subjects with TRD
Assay: Phase 2b trial in TRD: safety, treatment emergent adverse events
Assay type: in vivo, human
Text: Another objective was to evaluate the safety and tolerability of psilocybin in subjects with TRD based on AEs, changes in vital signs, and suicidal ideation/behaviour (measured using the Columbia-Suicide Severity Rating Scale [C-SSRS]) score at all visits.
Throughout the course of the study, all adverse events (AEs) were monitored and recorded and included the AE's description, start and end date, seriousness, severity, action taken, and relationship to the treatment. If AEs occurred, the first concern was the safety of the study subjects.
An AE can therefore be any unfavorable and unintended sign (including an abnormal laboratory finding, for example), symptom, or disease temporally associated with the use of a medicinal product, whether considered related to the medicinal product.
AEs were coded by Preferred Term (PT) using the Medical Dictionary for Regulatory Activities (MedDRA) classification. All reported AEs with onset or worsening after the administration of study medication were included in the analysis. The incidence of AEs was summarized by treatment group, and by severity and relationship to psilocybin. Serious AEs and AEs leading to withdrawal from the study will be tabulated.
A TEAE is defined as any AE that has an onset on or after the dose of psilocybin, or any pre-existing condition that has worsened on or after the dose of psilocybin.
The incidence of TEAEs and treatment-related AEs were summarized by maximum severity and most-related relationship to psilocybin by MedDRA primary system organ class and PT. The summary included the total number and percentage of subjects reporting an event.

In the case of CN(C)CCc1c[nH]c2cccc(OP(=O)(O)O)c12 [COMP360, psilocybin], the “Any TESAE, participants” value (1 mg (N = 79)) is reported as 1 (1.3) n (%), the “TEAE Abdominal pain upper, participants” value (1 mg (N = 79)) is reported as 1 (1.3) n (%) and the “TEAE Anxiety, participants” value (1 mg (N = 79)) is reported as 3 (3.8) n (%). The “TEAE Back pain, participants” value (1 mg (N = 79)) was 3 (3.8) n (%), the “TEAE Depressed mood, participants” value (1 mg (N = 79)) was 4 (5.1) n (%) and the “TEAE Depression, participants” value (1 mg (N = 79)) was 5 (6.3) n (%). The “TEAE Dizziness, participants” value (1 mg (N = 79)) was 1 (1.3) n (%), the “TEAE Euphoric mood, participants” value (1 mg (N = 79)) was 4 (5.1) n (%) and the “TEAE Fatigue, participants” value (1 mg (N = 79)) was 7 (8.9) n (%). The “TEAE Headache, participants” value (1 mg (N = 79)) was 20 (25.3) n (%), the “TEAE Insomnia, participants” value (1 mg (N = 79)) was 14 (17.7) n (%) and the “TEAE Irritability, participants” value (1 mg (N = 79)) was 1 (1.3) n (%). The “TEAE Mood altered, participants” value (1 mg (N = 79)) was 1 (1.3) n (%), the “TEAE Myalgia, participants” value (1 mg (N = 79)) was 1 (1.3) n (%) and the “TEAE Nausea, participants” value (1 mg (N = 79)) was 4 (5.1) n (%). The “TEAE Panic reaction, participants” value (1 mg (N = 79)) was 1 (1.3) n (%), the “TEAE Paraesthesia, participants” value (1 mg (N = 79)) was 1 (1.3) n (%) and the “TEAE Suicidal ideation, participants” value (1 mg (N = 79)) was 4 (5.1) n (%). For the same compound, the “TEAE Thinking abnormal, participants” value (1 mg (N = 79)) was 0 n (%), the “TESAE Adjustment disorder with anxiety, participants” value (1 mg (N = 79)) was 0 n (%) and the “TESAE Adjustment disorder with mixed anxiety and depressed mood, participants” value (1 mg (N = 79)) was 0 n (%). For the same compound, the “TESAE Depression, participants” value (1 mg (N = 79)) was 0 n (%), the “TESAE Drug withdrawal syndrome*, participants” value (1 mg (N = 79)) was 0 n (%) and the “TESAE Hospitalisation, participants” value (1 mg (N = 79)) was 0 n (%). The “TESAE Intentional self-injury, participants” value (1 mg (N = 79)) was 1 (1.3) n (%), the “TESAE Suicidal behaviour, participants” value (1 mg (N = 79)) was 0 n (%) and the “TESAE Suicidal ideation, participants” value (1 mg (N = 79)) was 0 n (%). The “Patients with TEAEs of suicidal ideation, suicidal behaviour and intentional self-injury” value (1 mg group) was “four”, the “Patients with TESAEs of suicidal ideation, suicidal behaviour and intentional self-injury” value (1 mg group) was “one” and the “Any TESAE, participants” value (10 mg (N = 75)) was 6 (8.0) n (%). For the same compound, the “TEAE Abdominal pain upper, participants” value (10 mg (N = 75)) was 2 (2.7) n (%), the “TEAE Anxiety, participants” value (10 mg (N = 75)) was 13 (17.3) n (%) and the “TEAE Back pain, participants” value (10 mg (N = 75)) was 0 n (%). The “TEAE Depressed mood, participants” value (10 mg (N = 75)) was 5 (6.7) n (%), the “TEAE Depression, participants” value (10 mg (N = 75)) was 6 (8.0) n (%) and the “TEAE Dizziness, participants” value (10 mg (N = 75)) was 1 (1.3) n (%). For the same compound, the “TEAE Euphoric mood, participants” value (10 mg (N = 75)) was 5 (6.7) n (%), the “TEAE Fatigue, participants” value (10 mg (N = 75)) was 5 (6.7) n (%) and the “TEAE Headache, participants” value (10 mg (N = 75)) was 16 (21.3) n (%). For the same compound, the “TEAE Insomnia, participants” value (10 mg (N = 75)) was 11 (14.7) n (%), the “TEAE Irritability, participants” value (10 mg (N = 75)) was 2 (2.7) n (%) and the “TEAE Mood altered, participants” value (10 mg (N = 75)) was 3 (4.0) n (%). For the same compound, the “TEAE Myalgia, participants” value (10 mg (N = 75)) was 2 (2.7) n (%), the “TEAE Nausea, participants” value (10 mg (N = 75)) was 7 (9.3) n (%) and the “TEAE Panic reaction, participants” value (10 mg (N = 75)) was 1 (1.3) n (%). The “TEAE Paraesthesia, participants” value (10 mg (N = 75)) was 4 (5.3) n (%), the “TEAE Suicidal ideation, participants” value (10 mg (N = 75)) was 5 (6.7) n (%) and the “TEAE Thinking abnormal, participants” value (10 mg (N = 75)) was 4 (5.3) n (%). For the same compound, the “TESAE Adjustment disorder with anxiety, participants” value (10 mg (N = 75)) was 0 n (%), the “TESAE Adjustment disorder with mixed anxiety and depressed mood, participants” value (10 mg (N = 75)) was 0 n (%) and the “TESAE Depression, participants” value (10 mg (N = 75)) was 1 (1.3) n (%). The “TESAE Drug withdrawal syndrome*, participants” value (10 mg (N = 75)) was 0 n (%), the “TESAE Hospitalisation, participants” value (10 mg (N = 75)) was 1 (1.3) n (%) and the “TESAE Intentional self-injury, participants” value (10 mg (N = 75)) was 2 (2.7) n (%). For the same compound, the “TESAE Suicidal behaviour, participants” value (10 mg (N = 75)) was 0 n (%), the “TESAE Suicidal ideation, participants” value (10 mg (N = 75)) was 2 (2.7) n (%) and the “Patients with TEAEs of suicidal ideation, suicidal behaviour and intentional self-injury” value (10 mg group) was “six”. The “Patients with TESAEs of suicidal ideation, suicidal behaviour and intentional self-injury” value (10 mg group) was “four”, the “Any TESAE, participants” value (25 mg (N = 79)) was 5 (6.3) n (%) and the “TEAE Abdominal pain upper, participants” value (25 mg (N = 79)) was 4 (5.1) n (%). The “TEAE Anxiety, participants” value (25 mg (N = 79)) was 7 (8.9) n (%), the “TEAE Back pain, participants” value (25 mg (N = 79)) was 6 (7.6) n (%) and the “TEAE Depressed mood, participants” value (25 mg (N = 79)) was 3 (3.8) n (%). For the same compound, the “TEAE Depression, participants” value (25 mg (N = 79)) was 4 (5.1) n (%) and the “TEAE Dizziness, participants” value (25 mg (N = 79)) was 6 (7.6) n (%).
